What is called pKd is −log10 of the Kd, conventionally taken in molar units. A high value points to a small Kd.

pKd: −log10 of the molar value. Entries after “also recorded” stand apart in the source; their conditions may differ.

Test [1] concerns HT29 human colon cancer cells. Description: Flow cytometry of nanocage binding to HT29 cancer cells. Format: cell-based. The following applies: 20, 200, 400 or 600 nM. Here is the method: In order to confirm the affinity of cancer cells for nanocages produced using various SIRP proteins prepared in Examples 1-2 to 1-5, respectively in addition to the nanocage prepared in Example 1-1, flow cytometry was performed. Particularly, HT29 human colon cancer cells were seeded into 2×10^5 cells/ml and the wild-type ferritin heavy chain nanocage as a control group, the FH-SIRPα HV nanocage prepared in Example 1-1, the FH-hSIRPα WT nanocage prepared in Example 1, the FH-SIRPγ WT nanocage prepared in Example 1-3 and the FH-SIRPγ V2 nanocage prepared in Example 1-5 were treated at the concentration of 20, 200, 400 or 600 nM, respectively, and the degree of cell binding was measured. Particularly, after treating anti-ferritin heavy chain primary antibody (Abcam, Cambridge, UK, 1:200) and an Alexafluor 488-conjugated donkey anti-rabbit secondary antibody (Jackson ImmunoResearch, Suffolk, UK, 1:400), the cells were sorted according to fluorescence intensity through flow cytometry analysis.
In general terms: Flow cytometry measures light scatter and fluorescence of single cells or particles in a stream.

Test [2] has as its system Raji, HT-29, 4T1, CT26 and CT26.CL25 cancer cells co-cultured with BMDMs. Description: Phagocytosis of cancer cells by bone marrow-derived macrophages (FACS). Format: cell-based, human, mouse. The note with it: 400 nM; compared with control group. From the text: (§1) Particularly, the present inventors observed the phagocytic action of macrophages and dendritic cells against tumor cells through FACS analysis. First, 3×10^5 cells/ml of bone marrow-derived macrophages (BMDMs) pre-stained with CellTracker Green (Thermo Fisher Scientific, USA) and (a) 1.25×10^6 cells/ml of human Raji Burkitt lymphoma cells, (b) human HT-29 colorectal cancer cells, (c) mouse 4T1 breast cancer cells, (d) mouse CT26 colorectal cancer cells and (e) mouse CT26.CL25 colorectal cancer cells overexpressing β-galactosidase pre-stained with pHrodo Red SE, respectively were seeded in RPMI medium and buffer only (control), the ferritin-SIRPα fusion nanocage (FH-SIRPα HV) of the present invention, the wild-type ferritin heavy chain nanocage (wtFH) and the monomeric SIRPα (mSIRPα) were treated at the concentration of 400 nM, respectively. […] The phagocytosis rate was determined by the following formula. […]

In test [3] the test system is Raji, HT-29, 4T1, CT26 and CT26.CL25 cancer cells co-cultured with BMDCs. Description: Phagocytosis of cancer cells by bone marrow-derived dendritic cells (FACS). Format: cell-based, human, mouse. The following applies: 400 nM; compared with control group.
Description: as §1

Test [4] has as its system CT26.CL25 mouse colon cancer cells. Description: Phagocytosis rate of CT26.CL25 cells by bone marrow-derived macrophages (counting phagocytized cells). Format: cell-based. The note with it: BMDMs cocultured with CT26.CL25 at 37° C. for 4 hours. Here is the method: After the staining, phagocytosis rate of macrophages against cancer cells were determined by counting phagocytized cancer cells by the macrophages.

In test [5] the test system is CT26.CL25 cancer cells. Description: In vivo cancer growth inhibition, intratumoral nanocages. On the set-up: species or system Balb/c wild-type mice. The following applies: CT26.CL25 subcutaneous; intratumoral 28 mg/kg. Here is the method:
(§2) The antitumor activities of the ferritin heavy chain nanocage prepared in Examples 1-1 to 1-5 and the doxorubicin nanocage complex prepared in Example 3 were examined. Particularly, Balb/c wild type mice were used as the experimental animals, and experiments on the above experimental animals were carried out according to the regulations of the KIST animal ethics committee.
First, in order to measure the in vivo anticancer activity of the various ferritin heavy chain nanocages prepared in Examples 1-1 to 1-5, 1×10^6 cells of CT26.CL25 cancer cells expressing β-galactosidase were subcutaneously injected on the left side of Balb/c wild-type mice in order to induce cancer and then each experimental substance (buffer only, FH-mSIRPα WT, FH-SIRPα HV, FH-SIRPγ WT and FH-SIRPγ V2) was injected intratumorally at dose of 28 mg/kg) after 5 day of tumor inoculation, and the length (L) and the width (W) of the tumor tissues were measured using a caliper at intervals of 3 days (FIG. 7A), and then the volume of tumor tissue was calculated using the following formula: Tumor tissue volume (V [mm^3])=(L [mm])×(W [mm])^2×0.5

The target in a further test is Human CD47 (Homo sapiens, UniProt Q08722). Briefly: Surface plasmon resonance (SPR) analysis of affinities and kinetics of binding to human CD47. The method, then: (§3) The present inventors performed fluorescence microscopy to confirm whether the FH-SIRPα HV nanocage prepared in Example 1 specifically binds to CD47 on the surface of cancer cells. Specifically, CT26 mouse colorectal cancer cell line and HT29 human colorectal cancer cell line were inoculated at a concentration of 3×10^4 cells/ml. Then, after treating 400 nM of FH-SIRPα HV nanocage prepared in Example 1-1 or same amount of wild-type ferritin heavy chain nanocage as control group, anti-ferritin primary antibody (Abcam, Cambridge, UK) and FITC-conjugated anti-mouse rabbit secondary antibody (Jackson ImmunoResearch, Suffolk, UK) were treated and then fluorescence microscopic images were obtained. […] The affinities and kinetics of FH-SIRP α HV nanocage binding human or mouse CD47 were analyzed by surface plasmon resonance (SPR) analysis and the results are shown in Table 1 below.
On the technique in general: In SPR one partner is held on a chip, and binding of the other changes the refractive index at the surface.

The target in a further test is T1, Mouse CD47 (Mus musculus, UniProt Q61735).
T1 sequence (Q61735 19-303): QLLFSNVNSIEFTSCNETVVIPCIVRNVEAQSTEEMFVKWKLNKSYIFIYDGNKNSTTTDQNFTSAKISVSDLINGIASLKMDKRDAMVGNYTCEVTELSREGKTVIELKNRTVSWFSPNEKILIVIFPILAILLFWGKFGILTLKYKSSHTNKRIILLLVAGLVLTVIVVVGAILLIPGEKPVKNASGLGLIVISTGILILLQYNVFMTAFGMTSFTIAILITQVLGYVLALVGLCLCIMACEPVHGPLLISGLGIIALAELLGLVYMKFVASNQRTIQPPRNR
Briefly: Surface plasmon resonance (SPR) analysis of affinities and kinetics of binding to mouse CD47. The method, then: as §3

For test [6], the system named is CT26.CL25 cancer cells. Briefly: In vivo cancer growth inhibition, tail vein injection of doxorubicin nanocage complex and comparators. On the set-up: species or system Balb/c wild-type mice. The note with it: tail vein 1 mg/kg; for tumor tissues excised after 25 days of cancer cell injection: day 25. Here is the method:
as §2
In addition, the present inventors investigated the in vivo anticancer activity of the doxorubicin-encapsulated nanocage complex prepared in Example 3 above. Particularly, 1×10^6 cells of CT26.CL25 cancer cells were subcutaneously injected into the above Balb/c wild-type mice to induce cancer. On the 7th day after the injection of cancer cells, 1 mg/kg of each test substance (buffer only, doxorubicin-loaded FH-SIRPα HV nanocage, doxorubicin-loaded ferritin heavy chain nanocage, doxorubicin+recombinant SIRPα, doxorubicin only, FH-SIRPα HV nanocage, ferritin heavy chain nanocage or recombinant SIRPα) was injected first by the tail vein and further injected four times at interval of 3 days at the same dose. The animals were sacrificed for 25 days after the injection of cancer cells, and the tumor tissues were excised and an ex vivo image was taken (FIG. 7D). Further, the volume of the tumor tissue over time before the sacrifice of the experimental animals was recorded from 7 days after the injection of cancer cells at the interval of 3 days by calculating using the following formula after measuring length (L) and width (W) of tumor tissues using a caliper: Tumor tissue volume (V [mm^3])=(L [mm])×(W [mm])^2×0.5

Test [7] relates to secondary cancer transplanted to other site. Briefly: Anticancer memory effect: secondary tumor rechallenge and survival. Format: in vivo, mice. The following applies: after 80 days of tumor rechallenge. From the text: The present inventors have hypothesized that the effect of FH-SIRPα nanocage according to an embodiment of the present invention is due to the recruiting of immune cells from the results of Experimental Example 3. Thus, the present inventors analyze growth of secondary cancer transplanted to other site and counted survival rate of the experimental animals after excising primary tumor tissues from the experimental animals.

Where [8] appears, read: five injections at interval of 3 days.

Sequence of Human CD47 (Q08722 19-323): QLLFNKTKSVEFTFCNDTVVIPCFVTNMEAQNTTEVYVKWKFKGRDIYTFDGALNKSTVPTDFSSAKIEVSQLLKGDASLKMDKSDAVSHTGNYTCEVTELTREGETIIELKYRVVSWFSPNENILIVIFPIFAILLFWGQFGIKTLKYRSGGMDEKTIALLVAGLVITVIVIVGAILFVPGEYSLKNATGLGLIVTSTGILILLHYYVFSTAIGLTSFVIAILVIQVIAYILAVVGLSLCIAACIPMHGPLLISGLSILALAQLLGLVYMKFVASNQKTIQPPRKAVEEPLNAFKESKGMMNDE

For the compound “wtFH: Wild-type ferritin heavy chain nanocage used as control [reference compound]”, in [1], the “degree of cell binding” value is given as “did not bind to cancer cells even when the concentration increased”. Also, in [2], the “phagocytosis of cancer cells by macrophages (BMDMs)” value is “very low”. Also, the “phagocytosis of cancer cells by dendritic cells (BMDCs)” value in [3] was “very low”.

Regarding “FH-hSIRPα WT nanocage: Ferritin heavy chain nanocage of fusion protein with human SIRPα wild-type protein (SEQ ID NO: 92)”, in [1], the “degree of cell binding” value is reported as “binds to cancer cells in a concentration-dependent manner”. The “phagocytic activity against cancer cells” value in test [4] is “exhibited phagocytic activity against cancer cells”. Also, the “antitumor activity (tumor growth)” value in the test on CT26.CL25 cancer cells [5] is “somewhat lowered”.

As for “mSIRPα: Monomeric (recombinant) SIRPα protein used as comparator”, in the test with Human CD47, the pKd was 11.27, the ka was 7e+06 M⁻¹ s⁻¹ and the kd is 3.7e-05 s⁻¹. In the test with Mouse CD47, this compound had a pKd of 8.21, a ka of 1.8e+06 M⁻¹ s⁻¹ and a kd of 0.011 s⁻¹. For the same compound, the “phagocytosis of cancer cells by macrophages (BMDMs)” value in test [2] is “significantly increased”. The “phagocytosis of cancer cells by dendritic cells (BMDCs)” value in [3] is recorded as “significantly increased”. Further, the “tumor tissues excised after 25 days of cancer cell injection” value with CT26.CL25 cancer cells [6] is “same tumor volume as the control group”. In the test on CT26.CL25 cancer cells [6] (setting [8]), the “anticancer effect (growth of cancer cells)” value is listed as “not so significant” and the “volume of the tumor” value is listed as “exceeded 1,000 mm^3”. This compound also displayed a survival rate in [7] of 50%.

For the compound `COc1cccc2c1C(=O)c1c(O)c3c(c(O)c1C2=O)C[C@@](O)(C(=O)CO)C[C@@H]3O[C@H]1C[C@H](N)[C@H](O)[C@H](C)O1` [doxorubicin], the “tumor tissues excised after 25 days of cancer cell injection” value with CT26.CL25 cancer cells [6] is “limited”. Moreover, the “anticancer effect (growth of cancer cells)” value in the test on CT26.CL25 cancer cells [6] (setting [8]) was “insignificant; also recorded: not so significant”. Besides, the survival rate in test [7] is 50%.
